Reference: patent US20060025446A1, “Propargyl nitroxides and indanyl nitroxides and their use for the treatment of neurologic diseases and disorders” (priority 2004, published 2006)
Structures can show the parent of a compound that is named as a salt.

Legend:
[1] = test system: Neutrophils; test: PMA-induced oxidative burst in neutrophils model (DCFH, FACS); assay type: cell-based; conditions: PMA 10 ng/ml for 30 minutes
Protocol: PMA-Induced Oxidative Burst in Neutrophils Model
The cells were activated with PMA (10 ng/ml) for 30 minutes and incubated with 2,7-dichlorodihydrofluorescin diacetate (DCFH), which is converted to a fluorescent compound in the presence of oxygen radicals and peroxynitrites. The fluorescent cells were detected in a cell sorter (FACS).

[2] = test system: Human Red Blood Cells; test: Hypochlorite (HOCl) hemolysis of human red blood cells model; assay type: cell-based; conditions: antioxidant activity; compounds dissolved at 5 mg/ml, aliquots tested
Protocol: Hypochlorite (HOCl) Hemolysis of Human Red Blood Cells Model
The reaction is based on the ability of oxygen radicals to lyse red blood cells. Antioxidant compounds such as ascorbic acid and 4-hydroxy-TEMPO (TEMPOL) prevent membrane damage in a dose dependent manner. All compounds were dissolved at a concentration of 5 mg/ml and aliquots were tested for their ability to prevent lysis.

[3] = Chemiluminescence model (without cells): Luminol, SIN-1, selenite, BSA; assay type: biochemical; conditions: antioxidant activity
From the text: Chemiluminescence Model (Without Cells)
Luminescence was generated in vials containing the following compounds: Luminol, SIN-1 (a generator of NO radicals), selenite, BSA. This reaction is inhibited by scavengers of peroxynitirites as well as scavengers of NO and other oxygen free radicals.

[4] = test system: Experimental Allergic Encephalomyelitis (EAE) using PLP 139-151; test: PLP induced EAE in mice; assay type: in vivo, Female SJL mice; conditions: 50 mg/kg/day orally by gavage, day 1 to day 20; for Incid.: sick animals/animals in group
Protocol: Induction of Experimental Allergic Encephalomyelitis (EAE) Using PLP
Female SJL mice (12 weeks old) were inoculated with the encephalitogienic peptide of proteolipid protein (PLP 139-151) synthesized to a purity of 70% by Sigma (Israel). 150 μg of the peptide were emulsified in complete Freund's adjuvant (CFA) (Difco Laboratories), supplemented with killed mycobacteria (5 mg/ml) and pertussis toxin (200 ng) (Sigma), given subcutaneously at day of inoculation only.
Mice were kept at specific pathogen free (SPF) conditions and given water and food ad libitum. Mice were daily observed for clinical signs from day 10 until day 18-21 post inoculation.
Treatment with Test Compounds
Compounds were dissolved in 2-hydroxypropyl beta cyclodextrin (40% water solution). Treatment started at day 1 post inoculation. The compounds B10 and A10 (50 mg/kg) and vehicle were given orally by gavage every day until day 20 post inoculation.
Interpretation of Results: Calculation of the Incidence of Disease
The number of sick animals in each group was summed. The percentage of sick animals in each group was calculated.
Calculation of the Mean Maximal Score (MMS)
The maximal scores of each of the 15 mice in the group were summed.
The mean maximal score of the group were calculated as follows: Σ maximal score of each mouse/number of mice in the group. Calculation of the Mean Disease Duration (MDD)
The mean duration of disease expressed in days was calculated as follows: Σ duration of disease of each mouse/number of mice in the group. Calculation of the Group Mean Score (GMS)
The scores of each of the 15 mice in the group was summed and the mean score per day was calculated.
The group mean score was calculated as follows: Σ total score of each mouse per day/number of mice in the group.

[5] = test system: EAE using MOG (Myelin Oligodendrocyte Glycoprotein); test: MOG induced EAE in mice; assay type: in vivo, Female C57B1/6 mice
[6] = test system: NGF-Differentiated PC12 Cells; test: MPP+ Parkinson neurotoxicity/neuroprotection model, LDH release; assay type: cell-based; conditions: MPP+ 1000 μM, 48-52 hr
Protocol: The Parkinson Neurotoxicity Model of 1-methyl-4-phenyl piridinium (MPP+ Iodine Salt, 1000 μM for 48-52 hr), Using 7-10 Days NGF-Differentiated PC12 Cells.
The slow developing cell death in this model is believed to be a result of inhibition of mitochondrial complex I and generation of oxygen and nitrogen radicals. Therefore the antioxidant tempol (4-HYDROXY-TEMPO) was used as a positive standard in the screening experiments with the compounds. The following detailed protocol was employed for testing.
MPP+—Neurotoxicity/Neuroprotection Protocol:
• 1. PC12 cells (2×10^5 cells) were seeded on NUNC 6-well dishes coated with 200 μg/ml collagen (rat tail type I) and grown in DMEM medium containing 7% Fetal Calf Serum, 7% Horse Serum and […] Penicilin and 100 ug/ml Streptomycin. • 2. Differentiation of the cells for 7-10 days was achieved by treatment with mouse β-NGF (β-nerve growth factor) (50 ng/ml) added freshly every 2-3 days to the culture medium. • 3. Cultures were progressively evaluated for the differentiation response expressed by elongation of neurites, increased percentage of responsive cells, and other morphological parameters. • 4. At the day of the experiment, the medium of the differentiated cultures was replaced to fresh medium containing NGF (50 ng/ml). • 5. […] LDH (lactic dehydrogenase) release to the medium (neurotoxicity) was measured after 48-52 hr after the addition of MPP+, using an ELISA reader. […]
Neurotoxicity is defined as the percentage of LDH released to the medium at the end of the experiment calculated according to the following formula: {LDH(MPP)−LDH(control)}/{LDH(total)−LDH(control)}×100=Neurotoxicity (% of total cell death) • LDH(MPP): LDH release at the end of MPP+ insult • LDH(control): LDH release at the end of experiment from untreated cultures • LDH(total): LDH released from the cultures upon freezing at −80° C. and thawing at room temperature (release of total/maximal LDH present in the culture) […]

[7] = dose 50 mg/kg/day, gavage x2/day, day 1 to 30

O=C1O[C@H]([C@@H](O)CO)C(O)=C1O [Ascorbic acid]
PMA (% cells activated) [1]: 100%
HOCl (% lysis) [2]: 100%
Chemiluminescence (% inhib.) [3]: 100%

C#CCN[C@@H]1CCc2ccc(OC(=O)NC3CC(C)(C)N([O])C(C)(C)C3)cc21.Cl [Compound A10, (2,2,6,6-Tetramethyl-1-piperidinyloxy-4-yl)-carbamic acid 3(R)-prop-2-ynylamino-indan-5-yl ester HCl]
MDD (mean disease duration) [4]: 5.8 ± 0.86 days
MDO (mean day of onset) [4]: 11 ± 0.2
MMS (mean maximal score) [4]: 5.0 ± 0.8
Mean score [4]: 3.4 ± 0.3
Incid. [4]: 5/5

C#CCN[C@@H]1CCc2ccc(NC(=O)OC3CC(C)(C)N([O])C(C)(C)C3)cc21 [Compound A11, (3-Prop-2-ynylamino-indan-5-yl) carbamic acid 2,2,6,6-tetramethyl-1-piperidinyloxy-4-yl ester HCl]
effect on EAE ([5]; discussion of results): significant beneficial effect
onset of clinical signs of EAE ([5]; discussion of results): long delay
MDD (mean disease duration) [5, 7]: 8.0 ± 2.02 days
MDO (mean day of onset) [5, 7]: 17.14 ± 0.80
MMS (mean maximal score) [5, 7]: 2.93 ± 0.76
Mean score [5, 7]: 0.65 ± 0.09
Incid. ([5]; sick animals/animals in group, dose 50 mg/kg/day, gavage x2/day, day 1 to 30): 7/13
Neuroprotection MPP+ ([6]; at 10 μM): 43% at 10

C#CCNC1CC(C)(C)N([O])C(C)(C)C1.Cl [Compound B10, 2,2,6,6-Tetramethyl-4-(prop-2-ynylamino)-piperidine nitroxide HCl]
HOCl (% lysis) [2]: 45%
(# dead) [4]: 3
MDD (mean disease duration) [4]: 5.2 ± 0.97 days
MDO (mean day of onset) [4]: 13.6 ± 0.81
MMS (mean maximal score) [4]: 5.0 ± 0.77
Mean score [4]: 3.57 ± 0.29
Incid. [4]: 5/5
Neuroprotection MPP+ ([6]; at 1 & 10 μM): Active at 1 & 10
Chemiluminescence (% inhib.) [3]: 42%

CC1(C)CC(O)CC(C)(C)N1[O] [Tempol, 4-hydroxy-2,2,6,6-tetramethylpiperidine-1-nitroxide]
PMA (% cells activated) [1]: 70%
HOCl (% lysis) [2]: 25%
Neuroprotection MPP+ ([6]; at 0.5-1.0 mmol): Active at 0.5-1.0
Chemiluminescence (% inhib.) [3]: 57%
